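Following 48 hours of exposure in 96-well plates, responses at five concentrations were used to interpolate endpoints linearly. The concentration for full growth arrest is given as TGI.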

Test systems include SW-620 colon; MALME-3M melanoma; SF-295 CNS; A498 renal; 786-0 renal; HCC-2998 colon; EKVX NSCLC; KM12 colon; OVCAR-4 ovarian; TK-10 renal; HL-60(TB) leukemia; A549 NSCLC; M14 melanoma.
Experiment in all cases: growth of human tumour cells (NCI), 48 h

In the case of `O=c1c2cc(Br)ccc2n(C2OC(CO)C(O)C(O)C2O)c(=S)n1-c1ccccc1` (configuration not stated), the TGI with SW-620 colon, in the assay on MALME-3M melanoma, with SF-295 CNS, with A498 renal, with 786-0 renal and in the assay with HCC-2998 colon was above 100 µM throughout. Besides, the TGI with EKVX NSCLC, in the assay with KM12 colon, in the assay on OVCAR-4 ovarian, in the assay on TK-10 renal, with HL-60(TB) leukemia and in the assay on A549 NSCLC was above 100 µM each time.

For the compound `CC1=C(c2ccccc2)CON(c2ccccc2)C1`, the TGI in the assay on SW-620 colon, with MALME-3M melanoma, with SF-295 CNS, in the assay on 786-0 renal, with HCC-2998 colon and with EKVX NSCLC was above 100 µM in each case. In addition, the TGI in the assay on KM12 colon was above 100 µM; in the assay on OVCAR-4 ovarian it was above 100 µM; with HL-60(TB) leukemia, 76.2 µM; in the assay with M14 melanoma, above 100 µM; in the assay on A549 NSCLC it was above 100 µM.

As to `O[C@]12c3ccccc3C1CCCC2N1CCOCC1` (some centres not stated), the TGI in the assay with SW-620 colon, with MALME-3M melanoma, in the assay with SF-295 CNS, in the assay with 786-0 renal, in the assay on EKVX NSCLC and in the assay on KM12 colon was above 100 µM in each case. Further, the TGI with OVCAR-4 ovarian, with TK-10 renal, in the assay with HL-60(TB) leukemia, in the assay on M14 melanoma and with A549 NSCLC was above 100 µM each time.

On to `COc1ccc(/C=N/NC(=O)CSc2nc(-c3ccccc3)c(-c3ccccc3)[nH]2)cc1OC`, for which the TGI is above 100 µM with SW-620 colon; 35.8 µM in the assay on MALME-3M melanoma; 55.9 µM in the assay on SF-295 CNS; 70 µM in the assay with A498 renal; 81 µM in the assay on 786-0 renal; 72.5 µM in the assay on EKVX NSCLC. Further, the TGI was 34 µM in the assay with KM12 colon; 87.4 µM in the assay on OVCAR-4 ovarian; above 100 µM with TK-10 renal; 42.3 µM in the assay with HL-60(TB) leukemia; 33.8 µM in the assay on M14 melanoma; above 100 µM in the assay on A549 NSCLC.

Turning to `COc1cc2c(cc1OC)C(Cc1cc(Br)c(OC)c(OC)c1)=[N+](C)CC2`, the TGI in the assay with SW-620 colon, in the assay on MALME-3M melanoma, in the assay with SF-295 CNS, in the assay with 786-0 renal, in the assay with HCC-2998 colon and in the assay on EKVX NSCLC was above 100 µM throughout. The TGI in the assay with KM12 colon, with OVCAR-4 ovarian, in the assay with TK-10 renal, with HL-60(TB) leukemia, in the assay with M14 melanoma and in the assay on A549 NSCLC was above 100 µM each time.

For `FC(F)(F)c1nc2c(ccc3[nH]c4c(-c5ccccc5)nccc4c32)[nH]1`, the TGI in the assay with SW-620 colon, in the assay on MALME-3M melanoma, in the assay on SF-295 CNS, with A498 renal, with 786-0 renal and with HCC-2998 colon was above 100 µM in each case. Besides, the TGI in the assay on EKVX NSCLC, with KM12 colon, in the assay with OVCAR-4 ovarian, with TK-10 renal, with HL-60(TB) leukemia and in the assay with M14 melanoma was above 100 µM in each case. Moreover, in the assay on A549 NSCLC, the TGI was above 100 µM.

Regarding `CC(C(=O)c1ccc(O)cc1)C1(O)C(=O)Nc2c(Cl)cc(Cl)cc21` (configuration not stated), the TGI was above 100 µM with SW-620 colon; above 100 µM in the assay on MALME-3M melanoma; above 100 µM with SF-295 CNS; above 85.3 µM with A498 renal; above 100 µM in the assay on 786-0 renal; above 100 µM with HCC-2998 colon. Further, the TGI was above 100 µM in the assay with EKVX NSCLC; above 100 µM with KM12 colon; 50.5 µM in the assay with OVCAR-4 ovarian; above 100 µM in the assay on TK-10 renal; 50.2 µM with HL-60(TB) leukemia; above 61.2 µM in the assay with M14 melanoma. Further, the TGI in the assay with A549 NSCLC is above 100 µM.

Regarding `COc1ccc(C2S/C(=C\c3ccc([N+](=O)[O-])cc3)C(=O)N2NC(=O)Cc2ccccc2)cc1` (configuration not stated), the TGI in the assay on SW-620 colon, in the assay with MALME-3M melanoma, with SF-295 CNS, with A498 renal, in the assay on 786-0 renal and with KM12 colon was above 100 µM each time. The TGI with OVCAR-4 ovarian, in the assay with TK-10 renal, in the assay with HL-60(TB) leukemia, with M14 melanoma and in the assay on A549 NSCLC was above 100 µM in each case.

Take `O=C(Cc1ccccc1)N/N=C(/c1nc2ccc([N+](=O)[O-])cc2[nH]c1=O)C(O)c1ccco1` (configuration not stated): the TGI in the assay on SW-620 colon, in the assay on MALME-3M melanoma, in the assay with SF-295 CNS, in the assay with A498 renal, in the assay with 786-0 renal and in the assay with HCC-2998 colon was above 100 µM each time. The TGI with EKVX NSCLC, in the assay with KM12 colon, in the assay on OVCAR-4 ovarian, with TK-10 renal, in the assay with HL-60(TB) leukemia and in the assay on M14 melanoma was above 100 µM throughout. In addition, the TGI in the assay on A549 NSCLC is above 100 µM.

With `C[C@@H]1C[C@@H]2C(=O)N(c3ccccc3)C(=O)[C@@H]2c2[nH]c3ccc(Br)cc3c21`, the TGI with SW-620 colon was above 100 µM; in the assay on MALME-3M melanoma it was above 100 µM; with SF-295 CNS, 90.9 µM; with A498 renal, above 100 µM; in the assay with 786-0 renal, above 100 µM; with HCC-2998 colon, above 100 µM. The TGI with EKVX NSCLC is above 100 µM; in the assay on KM12 colon it was 75.4 µM; with OVCAR-4 ovarian, 57.9 µM; in the assay with TK-10 renal it was above 100 µM; with HL-60(TB) leukemia, above 100 µM; in the assay with M14 melanoma, above 100 µM. Also, in the assay on A549 NSCLC, the TGI came to 90.1 µM.

Turning to `O=C(c1nc2ccc(Cl)cc2[nH]c1=O)C(O)c1ccco1` (configuration not stated), the TGI in the assay with SW-620 colon, in the assay with MALME-3M melanoma, with SF-295 CNS, with 786-0 renal, in the assay on HCC-2998 colon and in the assay on EKVX NSCLC was above 100 µM each time. The TGI with OVCAR-4 ovarian, in the assay with TK-10 renal, with HL-60(TB) leukemia, in the assay on M14 melanoma and in the assay with A549 NSCLC was above 100 µM each time.

The record behind these values is PubChem BioAssay (NCI).
